Experimental data reported in patent US20200377505A1, “BENZIMIDAZOLES AND AZA-BENZIMIDAZOLES, AND METHODS OF USE THEREOF” (Goldfinch Bio., Inc., priority 2017, published 2020).

How the values were obtained:
human TRPC6 = molecular target: T1, human TRPC6 (Homo sapiens, UniProt Q9Y210); assay: TRPC6 fluorescence-based assay (Ca2+ flux assay in FLIPR format), cells overexpressing TRPC6; type: cell-based; settings: 5 μM of test compound, following Carbachol stimulation
T1 construct: expressed in transfected cells; host or cells: HEK 293
T1 sequence (Q9Y210 1-931): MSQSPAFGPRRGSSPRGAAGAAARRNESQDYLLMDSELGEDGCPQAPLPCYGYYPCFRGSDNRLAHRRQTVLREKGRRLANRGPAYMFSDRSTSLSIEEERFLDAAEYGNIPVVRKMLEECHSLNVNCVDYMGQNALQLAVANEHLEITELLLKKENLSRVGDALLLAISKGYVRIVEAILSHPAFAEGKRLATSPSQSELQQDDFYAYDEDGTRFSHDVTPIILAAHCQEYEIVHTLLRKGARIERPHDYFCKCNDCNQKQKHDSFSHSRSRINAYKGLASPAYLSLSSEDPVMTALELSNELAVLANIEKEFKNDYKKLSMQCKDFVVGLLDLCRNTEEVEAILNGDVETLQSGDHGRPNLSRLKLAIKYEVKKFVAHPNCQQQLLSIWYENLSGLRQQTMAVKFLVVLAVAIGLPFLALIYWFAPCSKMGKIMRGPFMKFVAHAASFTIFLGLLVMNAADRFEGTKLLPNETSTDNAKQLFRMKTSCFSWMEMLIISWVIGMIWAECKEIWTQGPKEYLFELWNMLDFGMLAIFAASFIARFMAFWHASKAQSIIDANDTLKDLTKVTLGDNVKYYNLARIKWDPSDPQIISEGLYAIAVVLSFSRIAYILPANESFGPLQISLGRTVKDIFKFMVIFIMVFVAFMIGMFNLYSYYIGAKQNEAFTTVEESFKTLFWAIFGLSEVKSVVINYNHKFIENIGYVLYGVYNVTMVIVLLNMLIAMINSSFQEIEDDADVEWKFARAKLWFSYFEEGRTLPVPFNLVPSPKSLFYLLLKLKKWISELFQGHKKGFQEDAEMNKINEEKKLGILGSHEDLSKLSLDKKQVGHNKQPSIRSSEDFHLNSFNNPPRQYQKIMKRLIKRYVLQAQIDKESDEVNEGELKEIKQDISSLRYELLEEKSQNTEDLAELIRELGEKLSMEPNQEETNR

human TRPC5 = molecular target: T2, human TRPC5 (Homo sapiens, UniProt Q9UL62); assay: TRPC5 fluorescence-based assay (Ca2+ flux assay in FLIPR format), cells overexpressing TRPC5; type: cell-based; settings: 5 μM of test compound, following Carbachol stimulation
T2 construct: expressed in transfected cells; host or cells: HEK 293
T2 sequence (Q9UL62 1-973): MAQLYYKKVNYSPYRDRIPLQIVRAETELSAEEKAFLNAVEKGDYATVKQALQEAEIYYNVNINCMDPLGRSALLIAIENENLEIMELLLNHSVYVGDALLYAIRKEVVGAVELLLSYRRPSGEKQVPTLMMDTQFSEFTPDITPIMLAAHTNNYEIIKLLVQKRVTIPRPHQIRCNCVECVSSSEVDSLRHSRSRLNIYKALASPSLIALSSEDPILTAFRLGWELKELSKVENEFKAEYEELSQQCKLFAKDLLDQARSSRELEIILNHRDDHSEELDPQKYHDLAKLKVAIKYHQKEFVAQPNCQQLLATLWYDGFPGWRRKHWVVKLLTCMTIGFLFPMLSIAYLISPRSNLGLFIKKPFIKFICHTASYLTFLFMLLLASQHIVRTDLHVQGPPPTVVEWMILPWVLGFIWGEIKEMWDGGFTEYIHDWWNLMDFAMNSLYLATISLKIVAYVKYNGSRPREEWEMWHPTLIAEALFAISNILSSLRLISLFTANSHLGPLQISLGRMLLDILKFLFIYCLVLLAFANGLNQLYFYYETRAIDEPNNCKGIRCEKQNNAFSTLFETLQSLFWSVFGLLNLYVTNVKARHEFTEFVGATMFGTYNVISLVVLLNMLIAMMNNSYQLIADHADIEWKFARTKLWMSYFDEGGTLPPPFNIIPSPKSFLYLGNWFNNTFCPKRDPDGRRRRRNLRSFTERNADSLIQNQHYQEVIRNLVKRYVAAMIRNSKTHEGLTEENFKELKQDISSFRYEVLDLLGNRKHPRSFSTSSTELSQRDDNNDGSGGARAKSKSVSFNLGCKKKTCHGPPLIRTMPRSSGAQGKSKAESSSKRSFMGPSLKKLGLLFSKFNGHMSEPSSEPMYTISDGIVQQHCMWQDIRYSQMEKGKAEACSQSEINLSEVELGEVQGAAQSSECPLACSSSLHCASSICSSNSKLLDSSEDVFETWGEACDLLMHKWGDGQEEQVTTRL

| SMILES | inhibition at 5 µM (human TRPC6) | inhibition at 5 µM (human TRPC5) |
| --- | --- | --- |
| Cc1nc2ccccc2n1CCNC(=O)c1ccccc1SCc1ccsc1 | 80.8% | 77.7% |
| COc1ccc(/C=N/c2nc3ccccc3n2Cc2ccccc2)cc1OC | 90.5% | 74.3% |
| COc1ccccc1Cn1c(C)nc2ccccc21 | 89.9% | 73.4% |
| COc1ccccc1NC(=O)Cn1c(C)nc2ccccc21 | 84.1% | 72.7% |
| Clc1ccc(Cn2c(NCc3cccs3)nc3ccccc32)cc1 | 37.5% | 72% |
| CCn1c(NCc2ccc(Br)cc2)nc2ccccc21 | 77.3% | 71.6% |
| CCCn1c(NCc2c[nH]c3ccccc23)nc2ccccc21 | 54.7% | 70.6% |
| Cc1ccccc1OCCn1c(C)nc2ccccc21 | 76.2% | 70% |
| COc1ccc(-n2c(SCC(=O)Nc3cccc(S(=O)(=O)N4CCOCC4)c3)nc3ccccc32)cc1 | 6.92% | 69.6% |
| Cn1c(NCc2c[nH]c3ccccc23)nc2ccccc21 | 27.7% | 66.8% |
| C#CCn1c(Cc2ccc(OC)c(OC)c2)nc2ccccc21 | 91.5% | 66% |
| CCCn1c(NCc2ccc(N(CC)CC)cc2)nc2ccccc21 | 74.7% | 64.9% |
| c1csc(CNc2nc3ccccc3n2CCN2CCCCC2)c1 | 16.5% | 64.4% |
| Clc1ccc(Cn2cnc3ccccc32)c(Cl)c1 | 85.5% | 63.5% |
| CCN(CC)CCn1c(NCc2ccccc2OC)nc2ccccc21 | 21.9% | 63.4% |
| COc1ccc(CCN2CCC(Nc3nc4ccccc4n3CCc3ccc(OC)cc3)CC2)cc1 | 68.9% | 63.3% |
| CCN(CC)CCn1c(NCc2cccc(Br)c2)nc2ccccc21 | 69.8% | 62.9% |
| CCCCCn1c(NCc2ccc(N(C)C)cc2)nc2ccccc21 | 81.9% | 62.7% |
| CCN(CC)CCn1c(NCc2ccc(Cl)cc2)nc2ccccc21 | 57.1% | 62% |
| CCCn1c(-c2ccc(Br)cc2)nc2ccccc21 | 82.8% | 61.4% |
| CCCCCCn1c(NCc2ccccc2O)nc2ccccc21 | 21.9% | 61.3% |
| COCc1ccccc1Cn1cnc2ccccc21 | 83.5% | 61.3% |

| SMILES | inhibition at 5 µM (human TRPC6) | inhibition at 5 µM (human TRPC5) |
| --- | --- | --- |
| CCN(CC)c1ccc(CNc2nc3ccccc3n2CCN2CCCCC2)cc1 | 65.7% | 61.2% |
| CC(C)CCn1c(-c2ccc(N)cc2)nc2ccccc21 | 27.2% | 61.1% |
| CCN(CC)CCn1c(NCc2ccc(OC)cc2OC)nc2ccccc21 | 43.5% | 60.9% |
| Cn1c(=O)c2c(ncn2CC(=O)OCCCC(c2ccc(F)cc2)c2ccc(F)cc2)n(C)c1=O | 60.7% | 60% |
| CCCCn1c(NCc2nc3ccccc3n2C)nc2ccccc21 | 30.4% | 59.5% |
| COCCn1c(SCC(=O)Nc2cccc3ncccc23)nc2ccccc21 | 83.6% | 59.1% |
| CC(C)c1ccc(CNc2nc3ccccc3n2C)cc1 | 80.6% | 50% |
| CCn1c(NCc2ccccc2O)nc2ccccc21 | -8.69% | 50% |
| Nc1nc2ccccc2n1CCOc1ccccc1Cl | 53.7% | 49.9% |
| Nc1nc2ccccc2n1Cc1ccccc1F | 34.8% | 48.4% |
| CC(C)n1c(NCc2ccccc2)nc2ccccc21 | 22.4% | 48.4% |
| Cc1cc(NC(=O)Cn2c(NCc3ccccc3)nc3ccccc32)no1 | 22.8% | 48% |
| Fc1cccc(Cl)c1Cn1c(-c2ccco2)nc2ccccc21 | 61.7% | 47.9% |
| CCCCc1nc2ccccc2n1CC(=O)N1CCCC1c1nc2ccccc2s1 (centres unmarked) | -0.71% | 46.3% |
| CCCn1c(NCc2ccccc2Cl)nc2ccccc21 | 29.8% | 46% |
| Brc1cccc(CNc2nc3ccccc3n2CCN2CCOCC2)c1 | 18.5% | 45.8% |
| Cn1c(NCc2cccc3ccccc23)nc2ccccc21 | 27.5% | 45.5% |
| CCOc1ccccc1Nc1nc2ccccc2n1C(C)C | 40.7% | 45.1% |
| C=C(C)Cn1c(-c2ccc(N(C)C)cc2)nc2ccccc21 | 45% | 45% |
| COc1ccc(NCc2nc3ccccc3n2CCOc2ccccc2C)cc1 | 58.5% | 44.9% |
| CCOc1ccccc1CNc1nc2ccccc2n1C | 19.3% | 43.9% |
| CCCn1c(NCc2nc3ccccc3n2C)nc2ccccc21 | -6.21% | 42.8% |

| SMILES | inhibition at 5 µM (human TRPC6) | inhibition at 5 µM (human TRPC5) |
| --- | --- | --- |
| Cn1c(CC(O)c2ccccc2)nc2ccccc21 (centres unmarked) | -9.99% | 42.3% |
| COc1ccc(CNc2nc3ccccc3n2C)c(OC)c1 | 19.4% | 41.3% |
| CCCn1c(NCc2ccco2)nc2ccccc21 | 14.9% | 40.7% |
| OCCNc1nc2ccccc2n1CCOc1ccccc1 | 8.36% | 40.7% |
| CCn1c(NCc2cccc(Br)c2)nc2ccccc21 | 54.1% | 39.9% |
| Cc1ccc(Cn2c(C(C)(C)C)nc3ccccc32)cc1 | 27.7% | 39.7% |
| Cc1nc2ccccc2n1CC(=O)Nc1ccc(Cl)cc1 | 70% | 39.7% |
| CC(C)(C)C(=O)NCCc1nc2ccccc2n1Cc1ccc(Cl)cc1 | -7.07% | 38.9% |
| Nc1ccc(-c2nc3ccccc3n2CCCOc2ccccc2)cc1 | 27.3% | 38.6% |
| COc1ccc(OCc2nc3ccccc3n2CCc2ccccc2)cc1 | 52% | 38.3% |
| CCOc1ccc(NCc2nc3ccccc3n2CCOc2ccccc2C)cc1 | 66.1% | 37.5% |
| c1ccc(Cc2nc3ccccc3n2CCOc2ccccc2)cc1 | 17.7% | 36.7% |
| CC(C)n1c(Nc2ccccc2)nc2ccccc21 | 14.5% | 35.7% |
| Cc1ccccc1Cn1c(C2CC2)nc2ccccc21 | 45.3% | 35.5% |
| CCC(CC)c1nc2ccccc2n1Cc1ccccc1 | 35.3% | 34.9% |
| CCSc1nc2ccccc2n1Cc1cccc([N+](=O)[O-])c1 | 50% | 32.2% |
| Cc1ccc(NC(=O)Cn2c(C)nc3ccccc32)cc1 | 81.8% | 32.1% |
| CCCn1c(COc2ccccc2)nc2ccccc21 | 22.8% | 30.2% |
| CCCCn1c(NCc2ccc(N(CC)CC)cc2)nc2ccccc21 | 30.3% | 28.7% |
| CCC(=O)NCCc1nc2ccccc2n1Cc1ccc(F)cc1 | 2.78% | 27% |
